# Columns and labels:
# CYP 1A1 = CYP 1A1 inducibility/P450 function in primary hepatocytes in collagen sandwich culture (EROD assay, 3-MC induction); assay type: cell-based; conditions: mechanism under investigation
# Description: To study the effect of different compounds on the function of hepatocyte function and phenotype, hepatocytes were isolated according to techniques well known in the art and cultured in a collagen sandwich configuration. Hepatocytes were induced with the addition of 2 nM 3-methylcholanthrene (3-MC). CYP 1A1 was measured using the EROD assay as described in Pearce et al., 1996. Albumin secretion was measured using ELISA, as described in Dunn et al., 1991. Western blot analysis was performed using techniques well known in the art, using an antibody to CYP1A1.
# activated macrophages = conditions: stated as an observation, no source given; cited from earlier work
structure (smiles),measurement,setting,value
N[C@H]1C(O)O[C@H](CO)[C@@H](O)[C@@H]1O (some centres unmarked) [glucosamine],P450 function,CYP 1A1,protection of P450 function
same,NO synthesis,activated macrophages,inhibits NO synthesis

# From patent US20090137034A1, “METHODS FOR PERFUSION AND PLATING OF PRIMARY HEPATOCYTES AND A MEDIUM THEREFORE” (MASSACHUSETTS INSTITUTE OF TECHNOLOGY, priority 2002, published 2009)
